{
  "source": "patent US4217268A",
  "about": "“Synthesis of peptides” (priority 1978, dated 1980)",
  "experiment": "Calcitonin potency assay of the purified product (MRC units per mg)",
  "conditions": "purified freeze-dried product of Example 1",
  "note": "Bridge positions count the residues as written; N and C are the ends. Peptide text beside a SMILES is read from it.",
  "data": [
    {"smiles": "CC(C)C[C@H](NC(=O)[C@H](CCCCN)NC(=O)CNC(=O)[C@H](CC(C)C)NC(=O)[C@@H](NC(=O)[C@@H]1CSSC[C@H](N)C(=O)N[C@@H](CC(N)=O)C(=O)N[C@@H](CC(C)C)C(=O)N[C@@H](CO)C(=O)N[C@@H]([C@@H](C)O)C(=O)N1)C(C)C)C(=O)N[C@@H](CO)C(=O)N[C@@H](CCC(N)=O)C(=O)N[C@@H](CCC(=O)O)C(=O)N[C@@H](CC(C)C)C(=O)N[C@@H](Cc1c[nH]cn1)C(=O)N[C@@H](CCCCN)C(=O)N[C@@H](CC(C)C)C(=O)N[C@@H](CCC(N)=O)C(=O)N[C@H](C(=O)N[C@@H](Cc1ccc(O)cc1)C(=O)N1CCC[C@H]1C(=O)N[C@@H](CCCNC(=N)N)C(=O)N[C@H](C(=O)N[C@@H](CC(N)=O)C(=O)N[C@H](C(=O)NCC(=O)N[C@@H](CO)C(=O)NCC(=O)N[C@H](C(=O)N1CCC[C@H]1C(N)=O)[C@@H](C)O)[C@@H](C)O)[C@@H](C)O)[C@@H](C)O", "note": "[des-Ser^2-SCT, des-ser^2 -salmon calcitonin] (H-CNLSTCVLGKLSQELHKLQTYPRTNTGSGTP-NH2; disulfide 1-6)", "values": [
      {"measurement": "biological potency (assayed MRC units per mg)", "result": 5600, "unit": "MRC units per mg"}
    ]}
  ]
}
